Measurements as given in US9439432B2, “Phenylisoxazoline-based compound having herbicidal activity and use thereof” (MOGHU RESEARCH CENTER LTD, priority 2011, dated 2016).

test system: Echinochloa crusgalli; test: Pre-emergence treatment, herbicidal efficacy on barnyardgrass; assay type: in vivo; details: 62.5 g/ha, 4 weeks after spraying, scale 0 to 10
Procedure: (§1) A rectangular plastic pot having a surface area of 300 cm^2 was filled with sandy loam soil and mixed bed soil which were mixed at a ratio of 1:1, and then, barnyardrass (Echinochloa crusgalli), large crabgrass (Digitaria sanguinalis), blackgrass (Alopecurus myosuroides), and annual bluegrass (Poa annua), which are grass weeds, were seeded thereto. In a pot that was prepared as described above, seeds of corn, soybean, cotton, wheat, and rice were seeded. The pots were irrigated, and one day after, chemicals were sprayed thereto. The spraying was performed by using a track sprayer (R&D Sprayer, USA) equipped with a Teejet 8002 (Spraying Systems Co., USA) nozzle, and a spraying amount was adjusted at 300 L/ha. A spraying solution was prepared by dissolving test materials or references in acetone and adding the same amount of 0.2%(v/v) tween 20 aqueous solution thereto. Application rates were 500, 250, 125, and 62.5 g/ha. The pots were placed in a greenhouse in which during day, the temperature was maintained at a temperature of 25 to 30° C., and during night, the temperature was maintained at a temperature of 15 to 25° C., and the pots were periodically irrigated. Four weeks after the spraying the test materials or References, effects and phytotoxicity of the respective weeds and crops were evaluated in a scale of 0 to 10 (0: no effects, 10: complete death), and results thereof are shown in Table 4 below.

SMILES | Herbicidal efficacy, Echinochloa crusgalli
Cc1ccccc1C1=NOC(C)(COCc2ccccc2F)C1 (stereo not drawn) [Reference D] | 1

same assay, conditions: 125 g/ha, 4 weeks after spraying, scale 0 to 10

SMILES | Herbicidal efficacy, Echinochloa crusgalli
Cc1ccccc1C1=NOC(C)(COCc2ccccc2F)C1 (stereo not drawn) [Reference D] | 3

same assay, conditions: 250 g/ha, 4 weeks after spraying, scale 0 to 10

SMILES | Herbicidal efficacy, Echinochloa crusgalli
Cc1ccccc1C1=NOC(C)(COCc2ccccc2F)C1 (stereo not drawn) [Reference D] | 6

same assay, conditions: 500 g/ha, 4 weeks after spraying, scale 0 to 10 (0: no effects, 10: complete death)

SMILES | Herbicidal efficacy, Echinochloa crusgalli
Cc1ccccc1C1=NOC(C)(COCc2ccccc2F)C1 (stereo not drawn) [Reference D] | 10

test system: Soybean; test: Pre-emergence treatment, phytotoxicity to soybean; assay type: in vivo; details: 500 g/ha, 4 weeks after spraying, scale 0 to 10 (0: no effects, 10: complete death)
Procedure: as §1

SMILES | Phytotoxicity, Soybean
Cc1ccccc1C1=NOC(C)(COCc2ccccc2F)C1 (stereo not drawn) [Reference D] | 0

test system: Cotton; test: Post-emergence treatment, phytotoxicity to cotton; assay type: in vivo; details: post-emergence (about 3 leaf stage), 1,000 g/ha, 4 weeks after spraying, scale 0 to 10 (0: no effects, 10: complete death)
Procedure: as §1
(§2) Pots containing crops and weeds were prepared in the same manner as in Example 7, and then, in the second week in which crops and weeds entered into about 3 leaf stage, the test materials and the references were sprayed thereto in the same manner as described above. The rates were 1,000, 500, 250, and 125 g/ha. Four weeks after the spraying of the test materials or the references, herbicidal efficacy and phytotoxicity to the respective weeds and crops were evaluated in a scale of 0 to 10 (0: no effects, 10: complete death).

SMILES | Phytotoxicity, Cotton
Cc1ccccc1C1=NOC(C)(COCc2ccccc2F)C1 (stereo not drawn) [Reference D] | 0

test system: Corn; test: Pre-emergence treatment, phytotoxicity to corn; assay type: in vivo; details: 500 g/ha, 4 weeks after spraying, scale 0 to 10 (0: no effects, 10: complete death)
Procedure: as §1

SMILES | Phytotoxicity, Corn
Cc1ccccc1C1=NOC(C)(COCc2ccccc2F)C1 (stereo not drawn) [Reference D] | 0

test system: Soybean; test: Post-emergence treatment, phytotoxicity to soybean; assay type: in vivo; details: post-emergence (about 3 leaf stage), 1,000 g/ha, 4 weeks after spraying, scale 0 to 10 (0: no effects, 10: complete death)
Procedure: as §1, §2

SMILES | Phytotoxicity, Soybean
Cc1ccccc1C1=NOC(C)(COCc2ccccc2F)C1 (stereo not drawn) [Reference D] | 0

test system: Wheat; test: Pre-emergence treatment, phytotoxicity to wheat; assay type: in vivo; details: 500 g/ha, 4 weeks after spraying, scale 0 to 10 (0: no effects, 10: complete death)
Procedure: as §1

SMILES | Phytotoxicity, Wheat
Cc1ccccc1C1=NOC(C)(COCc2ccccc2F)C1 (stereo not drawn) [Reference D] | 0

test system: Echinochloa crusgalli; test: Post-emergence treatment, herbicidal efficacy on barnyardgrass; assay type: in vivo; details: post-emergence, 125 g/ha, 4 weeks after spraying, scale 0 to 10
Procedure: as §1, §2

SMILES | Herbicidal efficacy, Echinochloa crusgalli
Cc1ccccc1C1=NOC(C)(COCc2ccccc2F)C1 (stereo not drawn) [Reference D] | 0

same assay, conditions: post-emergence, 250 g/ha, 4 weeks after spraying, scale 0 to 10

SMILES | Herbicidal efficacy, Echinochloa crusgalli
Cc1ccccc1C1=NOC(C)(COCc2ccccc2F)C1 (stereo not drawn) [Reference D] | 0

same assay, conditions: post-emergence, 500 g/ha, 4 weeks after spraying, scale 0 to 10

SMILES | Herbicidal efficacy, Echinochloa crusgalli
Cc1ccccc1C1=NOC(C)(COCc2ccccc2F)C1 (stereo not drawn) [Reference D] | 1

same assay, conditions: post-emergence, 1,000 g/ha, 4 weeks after spraying, scale 0 to 10

SMILES | Herbicidal efficacy, Echinochloa crusgalli
Cc1ccccc1C1=NOC(C)(COCc2ccccc2F)C1 (stereo not drawn) [Reference D] | 4

test system: Digitaria sanguinalis; test: Pre-emergence treatment, herbicidal efficacy on large crabgrass; assay type: in vivo; details: 62.5 g/ha, 4 weeks after spraying, scale 0 to 10
Procedure: as §1

SMILES | Herbicidal efficacy, Digitaria sanguinalis
Cc1ccccc1C1=NOC(C)(COCc2ccccc2F)C1 (stereo not drawn) [Reference D] | 0

same assay, conditions: 125 g/ha, 4 weeks after spraying, scale 0 to 10

SMILES | Herbicidal efficacy, Digitaria sanguinalis
Cc1ccccc1C1=NOC(C)(COCc2ccccc2F)C1 (stereo not drawn) [Reference D] | 2

same assay, conditions: 250 g/ha, 4 weeks after spraying, scale 0 to 10

SMILES | Herbicidal efficacy, Digitaria sanguinalis
Cc1ccccc1C1=NOC(C)(COCc2ccccc2F)C1 (stereo not drawn) [Reference D] | 6

same assay, conditions: 500 g/ha, 4 weeks after spraying, scale 0 to 10

SMILES | Herbicidal efficacy, Digitaria sanguinalis
Cc1ccccc1C1=NOC(C)(COCc2ccccc2F)C1 (stereo not drawn) [Reference D] | 10

test system: Poa annua; test: Post-emergence treatment, herbicidal efficacy on annual bluegrass; assay type: in vivo; details: post-emergence, 125 g/ha, 4 weeks after spraying, scale 0 to 10
Procedure: as §1, §2

SMILES | Herbicidal efficacy, Poa annua
Cc1ccccc1C1=NOC(C)(COCc2ccccc2F)C1 (stereo not drawn) [Reference D] | 0

same assay, conditions: post-emergence, 250 g/ha, 4 weeks after spraying, scale 0 to 10

SMILES | Herbicidal efficacy, Poa annua
Cc1ccccc1C1=NOC(C)(COCc2ccccc2F)C1 (stereo not drawn) [Reference D] | 0

same assay, conditions: post-emergence, 500 g/ha, 4 weeks after spraying, scale 0 to 10

SMILES | Herbicidal efficacy, Poa annua
Cc1ccccc1C1=NOC(C)(COCc2ccccc2F)C1 (stereo not drawn) [Reference D] | 2

same assay, conditions: post-emergence, 1,000 g/ha, 4 weeks after spraying, scale 0 to 10

SMILES | Herbicidal efficacy, Poa annua
Cc1ccccc1C1=NOC(C)(COCc2ccccc2F)C1 (stereo not drawn) [Reference D] | 5

test system: Digitaria sanguinalis; test: Post-emergence treatment, herbicidal efficacy on large crabgrass; assay type: in vivo; details: post-emergence, 125 g/ha, 4 weeks after spraying, scale 0 to 10
Procedure: as §1, §2

SMILES | Herbicidal efficacy, Digitaria sanguinalis
Cc1ccccc1C1=NOC(C)(COCc2ccccc2F)C1 (stereo not drawn) [Reference D] | 0

same assay, conditions: post-emergence, 250 g/ha, 4 weeks after spraying, scale 0 to 10

SMILES | Herbicidal efficacy, Digitaria sanguinalis
Cc1ccccc1C1=NOC(C)(COCc2ccccc2F)C1 (stereo not drawn) [Reference D] | 0

same assay, conditions: post-emergence, 500 g/ha, 4 weeks after spraying, scale 0 to 10

SMILES | Herbicidal efficacy, Digitaria sanguinalis
Cc1ccccc1C1=NOC(C)(COCc2ccccc2F)C1 (stereo not drawn) [Reference D] | 4

same assay, conditions: post-emergence, 1,000 g/ha, 4 weeks after spraying, scale 0 to 10

SMILES | Herbicidal efficacy, Digitaria sanguinalis
Cc1ccccc1C1=NOC(C)(COCc2ccccc2F)C1 (stereo not drawn) [Reference D] | 7

test system: Cotton; test: Pre-emergence treatment, phytotoxicity to cotton; assay type: in vivo; details: 500 g/ha, 4 weeks after spraying, scale 0 to 10 (0: no effects, 10: complete death)
Procedure: as §1

SMILES | Phytotoxicity, Cotton
Cc1ccccc1C1=NOC(C)(COCc2ccccc2F)C1 (stereo not drawn) [Reference D] | 0

test system: Alopecurus myosuroides; test: Post-emergence treatment, herbicidal efficacy on blackgrass; assay type: in vivo; details: post-emergence, 125 g/ha, 4 weeks after spraying, scale 0 to 10
Procedure: as §1, §2

SMILES | Herbicidal efficacy, Alopecurus myosuroides
Cc1ccccc1C1=NOC(C)(COCc2ccccc2F)C1 (stereo not drawn) [Reference D] | 0

same assay, conditions: post-emergence, 250 g/ha, 4 weeks after spraying, scale 0 to 10

SMILES | Herbicidal efficacy, Alopecurus myosuroides
Cc1ccccc1C1=NOC(C)(COCc2ccccc2F)C1 (stereo not drawn) [Reference D] | 0

same assay, conditions: post-emergence, 500 g/ha, 4 weeks after spraying, scale 0 to 10

SMILES | Herbicidal efficacy, Alopecurus myosuroides
Cc1ccccc1C1=NOC(C)(COCc2ccccc2F)C1 (stereo not drawn) [Reference D] | 3

same assay, conditions: post-emergence, 1,000 g/ha, 4 weeks after spraying, scale 0 to 10

SMILES | Herbicidal efficacy, Alopecurus myosuroides
Cc1ccccc1C1=NOC(C)(COCc2ccccc2F)C1 (stereo not drawn) [Reference D] | 4

test system: Corn; test: Post-emergence treatment, phytotoxicity to corn; assay type: in vivo; details: post-emergence (about 3 leaf stage), 1,000 g/ha, 4 weeks after spraying, scale 0 to 10 (0: no effects, 10: complete death)
Procedure: as §1, §2

SMILES | Phytotoxicity, Corn
Cc1ccccc1C1=NOC(C)(COCc2ccccc2F)C1 (stereo not drawn) [Reference D] | 0

test system: Rice; test: Pre-emergence treatment, phytotoxicity to rice; assay type: in vivo; details: 500 g/ha, 4 weeks after spraying, scale 0 to 10 (0: no effects, 10: complete death)
Procedure: as §1

SMILES | Phytotoxicity, Rice
Cc1ccccc1C1=NOC(C)(COCc2ccccc2F)C1 (stereo not drawn) [Reference D] | 0

test system: Alopecurus myosuroides; test: Pre-emergence treatment, herbicidal efficacy on blackgrass; assay type: in vivo; details: 62.5 g/ha, 4 weeks after spraying, scale 0 to 10
Procedure: as §1

SMILES | Herbicidal efficacy, Alopecurus myosuroides
Cc1ccccc1C1=NOC(C)(COCc2ccccc2F)C1 (stereo not drawn) [Reference D] | 0

same assay, conditions: 125 g/ha, 4 weeks after spraying, scale 0 to 10

SMILES | Herbicidal efficacy, Alopecurus myosuroides
Cc1ccccc1C1=NOC(C)(COCc2ccccc2F)C1 (stereo not drawn) [Reference D] | 0

same assay, conditions: 250 g/ha, 4 weeks after spraying, scale 0 to 10

SMILES | Herbicidal efficacy, Alopecurus myosuroides
Cc1ccccc1C1=NOC(C)(COCc2ccccc2F)C1 (stereo not drawn) [Reference D] | 3

same assay, conditions: 500 g/ha, 4 weeks after spraying, scale 0 to 10

SMILES | Herbicidal efficacy, Alopecurus myosuroides
Cc1ccccc1C1=NOC(C)(COCc2ccccc2F)C1 (stereo not drawn) [Reference D] | 9

test system: Rice; test: Post-emergence treatment, phytotoxicity to rice; assay type: in vivo; details: post-emergence (about 3 leaf stage), 1,000 g/ha, 4 weeks after spraying, scale 0 to 10 (0: no effects, 10: complete death)
Procedure: as §1, §2

SMILES | Phytotoxicity, Rice
Cc1ccccc1C1=NOC(C)(COCc2ccccc2F)C1 (stereo not drawn) [Reference D] | 0

test system: Wheat; test: Post-emergence treatment, phytotoxicity to wheat; assay type: in vivo; details: post-emergence (about 3 leaf stage), 1,000 g/ha, 4 weeks after spraying, scale 0 to 10 (0: no effects, 10: complete death)
Procedure: as §1, §2

SMILES | Phytotoxicity, Wheat
Cc1ccccc1C1=NOC(C)(COCc2ccccc2F)C1 (stereo not drawn) [Reference D] | 0

test system: Poa annua; test: Pre-emergence treatment, herbicidal efficacy on annual bluegrass; assay type: in vivo; details: 62.5 g/ha, 4 weeks after spraying, scale 0 to 10
Procedure: as §1

SMILES | Herbicidal efficacy, Poa annua
Cc1ccccc1C1=NOC(C)(COCc2ccccc2F)C1 (stereo not drawn) [Reference D] | 0

same assay, conditions: 125 g/ha, 4 weeks after spraying, scale 0 to 10

SMILES | Herbicidal efficacy, Poa annua
Cc1ccccc1C1=NOC(C)(COCc2ccccc2F)C1 (stereo not drawn) [Reference D] | 2

same assay, conditions: 250 g/ha, 4 weeks after spraying, scale 0 to 10

SMILES | Herbicidal efficacy, Poa annua
Cc1ccccc1C1=NOC(C)(COCc2ccccc2F)C1 (stereo not drawn) [Reference D] | 5

same assay, conditions: 500 g/ha, 4 weeks after spraying, scale 0 to 10

SMILES | Herbicidal efficacy, Poa annua
Cc1ccccc1C1=NOC(C)(COCc2ccccc2F)C1 (stereo not drawn) [Reference D] | 8
